Measurements reported in US20110033418A1, “TREATMENT OF DISEASES CAUSED BY VIRAL INFECTION” (priority 2009, published 2011).

Experiments:
Ljungan virus (LV) [1] = conditions: number of 7 mice; 200 mg per kg orally daily for 50 days from day 35; terminated at day 120
Description: An ALS mouse model was used in which the mice are transgenic for superoxide dismutase 1 (SOD1). […] The inventors treated the LV infection in these mice using two different antiviral compounds separately and in combination. One group of mice was kept as a control.
Groups of seven 35 day old B6SJL-Tg-SOD1-G93 mice were treated with two antiviral compounds, Pleconaril and Ribavirin (200 mg of each per kg body weight), orally with a tube connected to a syringe daily for 50 consecutive days. Mice were observed every day for signs of paralysis.
The experiment was terminated at day 120 when all untreated animals were expected to have developed severe paralysis and death.

Ljungan virus (LV) [2] = assay: Diabetes in male CD-1 mice infected with LV in utero and subjected to stress (glucose tolerance test, abdominal fat, serum insulin); type: in vivo
Description: Animals CD-1 (ICR) mice were obtained from Br Charles River laboratories, Germany. Glucose tolerance test was performed to diagnose diabetes. In this test 2 g glucose per kg body weight was injected intraperitoneally (as 100 mg glucose/ml solution). Blood glucose was measured (Medisence Precision PCx Abbott Laboratories) before the injection of glucose and after 60 and 120 min. Diabetes was defined as a blood glucose level above 200 mg/dL at 120 min. Abdominal fat in male mice was measured by dissecting out the bilateral scrotal fat cushion. The total weight of both fat cushions was used.
Analysis of insulin Serum insulin was measured using a rat insulin ELISA kit (Mercodia AB).
Transmission of LV to CD-1 mice followed by antiviral treatments Pregnant outbred CD1 mice were infected intraperitoneally with 1000 ID50 (determined by intra cerebral titration in suckling mice) units of LV145 SL two days after conception. Control animals were given an injection of saline. All female mice were kept in individual cages and followed for the development of gestational diabetes, pregnancy outcome and development of diabetes in the offspring. In all the pregnant mice mild stress was induced by adding glucose (100 g/L) to drinking water, performing weekly weights and a glucose tolerance test at the end of the pregnancy. At five weeks of age antiviral therapy to the male offsprings, using LV-specific murine antiserum or the oral antiviral compound Pleconaril (200 mg per kg body weight) or a combination of both, were given once a day for four consecutive days. The control groups of infected and uninfected male offsprings were untreated. From the age of 25 days all mice were subjected to stress by placing 4-5 male mice from different litters in the same cage. At 15 weeks of age the animals were subjected to a glucose tolerance test. Serum insulin levels and abdominal fat were measured.
Statistics The glucose tolerance test in the CD-1 mice was evaluated by Fisher's exact one sided test. Otherwise statistical significance in the CD-1 mice was evaluated by Student's t-test. P values <0.05 were considered significant. Data are presented as means±s.e.m.

LV = assay: Inhibitory effect on LV in tissue culture; type: cell-based
Source text: Antiviral agents Pleconaril (VP-63843) a novel, orally bio-available, broad spectrum anti-picorna-viral agent developed as a therapeutic tool in entero- and rhino viral infections, was used alone or in combination with specific antiserum for intervention.

Row | SMILES | Mice with paralysis (including death) (Ljungan virus (LV) [1]) | Mice without paralysis (Ljungan virus (LV) [1]) | No. with blood glucose >200 mg/dL at 120 min (percent of group) (Ljungan virus (LV) [2]; glucose tolerance test at 15 weeks of age, LV infected, stressed male CD-1 mice) [%] | Blood glucose at 60 min (Ljungan virus (LV) [2]; glucose tolerance test, 2 g glucose per kg i.p., means±s.e.m.) [mg/dL] | No. with blood glucose >200 mg/dL at 120 min (Ljungan virus (LV) [2]; number of mice, glucose tolerance test at 15 weeks of age, LV infected, stressed male CD-1 mice, treatment once a day for four days at five weeks of age) | Serum insulin (Ljungan virus (LV) [2]; rat insulin ELISA, means±s.e.m.) [µg/L] | Abdominal fat (Ljungan virus (LV) [2]; total weight of bilateral scrotal fat cushions, means±s.e.m.) [g] | inhibitory effect on LV (LV)
1 | Cc1cc(CCCOc2c(C)cc(-c3noc(C(F)(F)F)n3)cc2C)on1 [Pleconaril, (3-[3,5-dimethyl-4-[[3-(3-methyl-5-isoxazolyl)propyl]oxy]phenyl]-5-(trifluoromethyl)-1,2,4-oxadiazole)] | 5 | 2 | 9 | 211 ± 23.8 | 1 | 4.15 ± 1.52 | 2.1 ± 0.31 | some inhibitory effect on LV
2 | NC(=O)c1ncn([C@@H]2O[C@H](CO)[C@@H](O)[C@H]2O)n1 [Ribavirin, 1-[(2R,3R,4S,5R)-3,4-dihydroxy-5-(hydroxymethyl)oxolan-2-yl]-1H-1,2,4-triazole-3-carboxamide] | 6 | 1 | – | – | – | – | – | –
